Assay results published in patent US8501752B2, “Methods for treating cancer and other pathological proliferating disorders by inhibiting mitosis using pyrrolo[2,3-d]pyrimidines” (Duquesne University of the Holy Ghost, priority 2005, dated 2013).
Where two headings read alike, the source gives them in different places.

Experiments:
[1] = system: IGROVI; experiment: NCI IVCLSP growth inhibition (SRB), IGROVI; format: cell-based, human; conditions: 48 h drug incubation
Description: (§1) FIG. 1 presents nine compounds that were tested using the National Cancer Institute (NCI) 60 human tumor cell lines. The cells lines, which represent leukemia, melanoma, and cancers of the lung, colon, brain, ovary, breast, prostate, and kidney, are listed in Table 1.
(§2) Compounds 1-9 were tested according to the NCI Developmental Therapeutics Program (DTP) In Vitro Cell Line Screening Project (IVCLSP). […] Methodology for testing under the IVCLSP is as follows: The human tumor cell lines of the cancer screening panel are grown in RPMI 1640 medium containing 5% fetal bovine serum and 2 mM L-glutamine. […]
(§3) Following drug addition, the plates are incubated for an additional 48 h at 37° C., 5% CO2, 95% air, and 100% relative humidity. […] Bound stain is subsequently solubilized with 10 mM trizma base, and the absorbance is read on an automated plate reader at a wavelength of 515 nm. […] Using the seven absorbance measurements [time zero, (Tz), control growth, (C), and test growth in the presence of drug at the five concentration levels (Ti)], the percentage growth is calculated at each of the drug concentrations levels. Percentage growth inhibition is calculated as: [(Ti−Tz)/(C−Tz)]×100 for concentrations for which Ti>/=Tz [(Ti−Tz)/Tz]×100 for concentrations for which Ti<Tz.
(§4) Three dose response parameters are calculated for each experimental agent. […]

[2] = system: p53; experiment: Western blot, p53 expression in MCF-7 cells; format: cell-based, human; conditions: 24 hours, various concentrations
Description: To further characterize the cell cycle effects of Compound 1 on human tumor cells, MCF-7 cells were treated for 24 hours with various concentrations of Compound 1, vinblastine, or TAXOL (paclitaxel). Cells were then harvested, lysed, and analyzed for levels of expression of p53 and WAF1 by Western Blot analyses. […] Compound 1 is identified as “149” in these figures. […] None of these treatments affected the expression of bcl-2 or P-tubulin in the MCF-7 cells.

[3] = system: EKVX; experiment: NCI IVCLSP growth inhibition (SRB), EKVX; format: cell-based, human; conditions: 48 h drug incubation
Description: as §1, §2, §3, §4

[4] = system: MCF-7 cells; experiment: Cytotoxicity, drug-sensitive MCF-7 cells; conditions: mean ± SEM for 3 experiments
Description: (§5) These cell lines are resistant to anticancer drugs due to overexpression of the transport proteins P-glycoprotein or MRP1.

[5] = system: HL-60 human promyelocytic leukemia cells; experiment: Flow cytometric cell cycle phase distribution; format: cell-based; conditions: 24 hours treatment
Description: Flow cytometric analyses were used to assess the effects of Compound 1 and various antimicrotubule drugs on the cell cycle phase distributions of HL-60 human promyelocytic leukemia cells. The percentage of cells in the G2/M phases were increased approximately 2-fold by treatment of the cells for 24 hours with either TAXOL (paclitaxel), vinblastine, colchicine, or Compound 1.

[6] = system: MCF7; experiment: NCI IVCLSP growth inhibition (SRB), MCF7; format: cell-based, human; conditions: 48 h drug incubation
Description: as §1, §2, §3, §4

[7] = system: T-47D; experiment: NCI IVCLSP growth inhibition (SRB), T-47D; format: cell-based, human; conditions: 48 h drug incubation
Description: as §1, §2, §3, §4

[8] = system: SNB-19; experiment: NCI IVCLSP growth inhibition (SRB), SNB-19; format: cell-based, human; conditions: 48 h drug incubation
Description: as §1, §2, §3, §4

[9] = system: NCI/ADR cells; experiment: Cytotoxicity, NCI/ADR cells that overexpress P-glycoprotein; conditions: for IC50: mean ± SEM for 3 experiments
Description: as §5

[10] = system: 786-0; experiment: NCI IVCLSP growth inhibition (SRB), 786-0; format: cell-based, human; conditions: 48 h drug incubation
Description: as §1, §2, §3, §4

[11] = system: SR; experiment: NCI IVCLSP growth inhibition (SRB), SR; format: cell-based, human; conditions: 48 h drug incubation
Description: as §1, §2, §3, §4

[12] = system: CCRF-CEM; experiment: NCI IVCLSP growth inhibition (SRB), CCRF-CEM; format: cell-based, human; conditions: 48 h drug incubation
Description: as §1, §2, §3, §4

[13] = system: NCI-H522; experiment: NCI IVCLSP growth inhibition (SRB), NCI-H522; format: cell-based, human; conditions: 48 h drug incubation
Description: as §1, §2, §3, §4

[14] = system: NCI-H322M; experiment: NCI IVCLSP growth inhibition (SRB), NCI-H322M; format: cell-based, human; conditions: 48 h drug incubation
Description: as §1, §2, §3, §4

[15] = system: SN12C; experiment: NCI IVCLSP growth inhibition (SRB), SN12C; format: cell-based, human; conditions: 48 h drug incubation
Description: as §1, §2, §3, §4

With `COc1cc(CCc2cn(Cc3ccccc3)c3nc(N)nc(C)c23)cc(OC)c1OC` [Compound 1] the GI50 [1] was 61.1 nM, the “level of expression of p53 (in words)” value [2] was “induced the expression” and the GI50 [3] was 424 nM. For the same molecule, the IC50 ([4]; read-out: Cytotoxicity IC50, MCF-7) was 300 ± 160 nM, the IC50 ([4]; read-out: drug sensitivity (IC50), MCF-7, Table 4) was 280 ± 10 nM and the “increase of the percentage of cells in the G2/M phases” value ([5]; HL-60) was “approximately 2 fold”. The “cell cycle distribution, G2/M” value ([5]; percentage of HL-60 cells) was 9.7 ± 0.4, the “cell cycle distribution, G9/G1” value ([5]; percentage of HL-60 cells) was 80.0 ± 2.4 and the “cell cycle distribution, S” value ([5]; percentage of HL-60 cells) was 10.3 ± 2.0. The GI50 [6] was 118 nM, the GI50 [7] was 563 nM and the GI50 [8] was 273 nM. For the same molecule, the “Resistance (NCI/ADR relative to MCF-7)” value ([9]; P-glycoprotein) was 1.3, the IC50 ([9]; read-out: Cytotoxicity IC50, NCI/ADR) was 250 ± 120 nM and the IC50 ([9]; read-out: drug sensitivity (IC50), NCI/ADR, Table 4, P-glycoprotein overexpressing) was 350 ± 40 nM. For the same molecule, the GI50 [10] was 254 nM, the GI50 [11] was 31.4 nM and the GI50 [12] was 58 nM. The GI50 [13] was 47.7 nM, the GI50 [14] was 581 nM and the GI50 [15] was 537 nM.
